Patent US20100267561A1, “HERBICIDAL PYRIDAZINONE DERIVATIVES” (priority 2007, published 2010)

How the values were obtained:
Assay type in all cases: in vivo
[1] = test system: eastern black (E.B.) nightshade (Solanum ptycanthum); test: Test B pre-/postemergence plant response; details: Preemergence
Outline: (§1)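 Visual scoring from 0 (no effect) to 100 (complete control) against untreated controls was done 13 to 15 days after greenhouse treatment. Chemicals were formulated in a surfactant-containing non-phytotoxic solvent and applied to soil preemergence or to 1- to 4-leaf (2-18 cm) plants postemergence.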

[2] = test system: giant foxtail (Setaria faberii); test: Test B pre-/postemergence plant response; details: for Foxtail, Giant plant response rating: 8 g ai/ha
Outline: as §1

[3] = test system: downy bromegrass (Bromus tectorum); test: Test B pre-/postemergence plant response; details: for Bromegrass, Downy plant response rating: 8 g ai/ha
Outline: as §1

[4] = test system: woolly cupgrass (Eriochloa villosa); test: Test B pre-/postemergence plant response; details: for Cupgrass, Woolly plant response rating: 8 g ai/ha
Outline: as §1

[5] = test system: green foxtail (Setaria viridis); test: Test B pre-/postemergence plant response; details: for Foxtail, Green plant response rating: 8 g ai/ha
Outline: as §1

[6] = test system: pigweed (Amaranthus retroflexus); test: Test B pre-/postemergence plant response; details: for Pigweed plant response rating: 8 g ai/ha
Outline: as §1

wild oat (Avena fatua) = test: Test B pre-/postemergence plant response; details: for Oat, Wild plant response rating: 8 g ai/ha
Outline: as §1

corn (Zea mays) = test: Test B pre-/postemergence plant response; details: for Corn plant response rating: 8 g ai/ha
Outline: as §1

[7] = test system: Russian thistle (Salsola iberica); test: Test B pre-/postemergence plant response; details: Preemergence
Outline: as §1

[8] = test system: large crabgrass (Digitaria sanguinalis); test: Test B pre-/postemergence plant response; details: for Crabgrass, Large plant response rating: 8 g ai/ha
Outline: as §1

[9] = test system: ducksalad (Heteranthera limosa); test: Test B flooded paddy test plant response
Outline: (§2)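 Rice, umbrella sedge, ducksalad and barnyardgrass at 2-leaf stage; pots flooded to 3 cm, compounds applied into paddy water, depth held throughout. Greenhouse 13 to 15 days, then visual rating vs untreated controls on 0–100 scale (0 no effect, 100 complete control); dash means no test result.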

[10] = test system: barnyardgrass (Echinochloa crus-galli); test: Test B flooded paddy test plant response
Outline: as §2

[11] = test system: umbrella sedge (Cyperus difformis); test: Test B flooded paddy test plant response
Outline: as §2

rice (Oryza sativa) = test: Test B flooded paddy test plant response
Outline: as §2

[12] = 16 g ai/ha, scale 0 to 100 (0 no effect, 100 complete control)
[13] = 31 g ai/ha, 0 to 100 scale, 0 no effect, 100 complete control
[14] = Postemergence, 16 g ai/ha, scale 0 to 100
[15] = Postemergence, 31 g ai/ha, scale 0 to 100, 0 no effect, 100 complete control
[16] = Postemergence, 62 g ai/ha, scale 0 to 100, 0 no effect, 100 complete control
[17] = Preemergence, 16 g ai/ha, scale 0 to 100 (0 no effect, 100 complete control)
[18] = Preemergence, 31 g ai/ha, 0 to 100 scale, 0 no effect, 100 complete control
[19] = Preemergence, 62 g ai/ha, scale 0 to 100
[20] = Flood (flooded paddy test), 62 g ai/ha, scale 0 to 100, 0 no effect, 100 complete control
[21] = Flood (flooded paddy test), 125 g ai/ha, scale 0 to 100, 0 no effect, 100 complete control
[22] = Flood (flooded paddy test), 250 g ai/ha, scale 0 to 100, 0 no effect, 100 complete control
[23] = Flood, 31 g ai/ha, scale 0 to 100

Cn1ncc(O)c(-c2nn(-c3ccc(Cl)cc3)cc2Cl)c1=O [Compound 28]
60: Foxtail, Giant plant response rating ([2]; Preemergence, scale 0 to 100) | Foxtail, Green plant response rating ([5]; postemergence, 0-100 scale) | Crabgrass, Large plant response rating ([8]; postemergence, 0-100 scale) | Plant response rating, Rice (rice (Oryza sativa); [22])
90: Plant response rating, Oat, Wild (wild oat (Avena fatua); [19]) | Plant response rating, Corn (corn (Zea mays); [19])
95: Plant response rating, Foxtail, Giant [2, 15] | Plant response rating, Cupgrass, Woolly [4, 15] | Plant response rating, Cupgrass, Woolly [4, 16] | Plant response rating, Oat, Wild (wild oat (Avena fatua); [15])
5: Plant response rating, Bromegrass, Downy [3, 14]
50: Plant response rating, Bromegrass, Downy [3, 18] | Plant response rating, Bromegrass, Downy [3, 19] | Cupgrass, Woolly plant response rating ([4]; postemergence, 0-100 scale) | Plant response rating, Oat, Wild (wild oat (Avena fatua); [17])
98: Plant response rating, Foxtail, Giant [2, 17] | Plant response rating, Cupgrass, Woolly [4, 18] | Plant response rating, Cupgrass, Woolly [4, 19] | Plant response rating, Foxtail, Green [5, 15] | Plant response rating, Oat, Wild (wild oat (Avena fatua); [16]) | Plant response rating, Crabgrass, Large [8, 16] | Plant response rating, Crabgrass, Large [8, 17]
45: Oat, Wild plant response rating (wild oat (Avena fatua); postemergence, 0-100 scale)
20: Plant response rating, Bromegrass, Downy [3, 16] | Bromegrass, Downy plant response rating ([3]; Preemergence, scale 0 to 100)
0: Plant response rating, Nightshade, E. B. [1, 12] | Plant response rating, Nightshade, E. B. [1, 13] | Plant response rating, Nightshade, E. B. ([1]; 62 g ai/ha, scale 0 to 100) | Nightshade, E. B. plant response rating ([1]; 8 g ai/ha, scale 0 to 100) | Bromegrass, Downy plant response rating ([3]; postemergence, 0-100 scale) | Cupgrass, Woolly plant response rating ([4]; Preemergence, scale 0 to 100) | Pigweed plant response rating ([6]; postemergence, 0-100 scale) | Plant response rating, Pigweed [6, 14] | Plant response rating, Pigweed [6, 15] | Plant response rating, Pigweed [6, 16] | Plant response rating, Pigweed [6, 17] | Plant response rating, Pigweed [6, 18] | Plant response rating, Pigweed [6, 19] | Pigweed plant response rating ([6]; Preemergence, scale 0 to 100) | Oat, Wild plant response rating (wild oat (Avena fatua); Preemergence, scale 0 to 100) | Corn plant response rating (corn (Zea mays); postemergence, 0-100 scale) | Plant response rating, Corn (corn (Zea mays); [14]) | Plant response rating, Corn (corn (Zea mays); [15]) | Plant response rating, Corn (corn (Zea mays); [17]) | Corn plant response rating (corn (Zea mays); Preemergence, scale 0 to 100) | Plant response rating, Russian Thistle [7, 12] | Plant response rating, Russian Thistle [7, 13] | Plant response rating, Russian Thistle ([7]; 62 g ai/ha, scale 0 to 100) | Russian Thistle plant response rating ([7]; 8 g ai/ha, scale 0 to 100) | Plant response rating, Ducksalad [9, 20] | Plant response rating, Ducksalad [9, 21] | Plant response rating, Ducksalad [9, 22] | Plant response rating, Ducksalad [9, 23] | Plant response rating, Barnyardgrass [10, 20] | Plant response rating, Barnyardgrass [10, 21] | Plant response rating, Barnyardgrass [10, 23] | Plant response rating, Sedge, Umbrella [11, 20] | Plant response rating, Sedge, Umbrella [11, 21] | Plant response rating, Sedge, Umbrella [11, 22] | Plant response rating, Sedge, Umbrella [11, 23] | Plant response rating, Rice (rice (Oryza sativa); [20]) | Plant response rating, Rice (rice (Oryza sativa); [21]) | Plant response rating, Rice (rice (Oryza sativa); [23])
75: Plant response rating, Crabgrass, Large [8, 14]
70: Plant response rating, Oat, Wild (wild oat (Avena fatua); [18])
40: Plant response rating, Bromegrass, Downy [3, 17] | Plant response rating, Corn (corn (Zea mays); [16])
55: Plant response rating, Cupgrass, Woolly [4, 14] | Plant response rating, Corn (corn (Zea mays); [18])
30: Plant response rating, Cupgrass, Woolly [4, 17] | Foxtail, Green plant response rating ([5]; Preemergence, scale 0 to 100) | Plant response rating, Barnyardgrass [10, 22]
65: Foxtail, Giant plant response rating ([2]; postemergence, 0-100 scale) | Plant response rating, Foxtail, Green [5, 14] | Crabgrass, Large plant response rating ([8]; Preemergence, scale 0 to 100)
80: Plant response rating, Foxtail, Giant [2, 14] | Plant response rating, Oat, Wild (wild oat (Avena fatua); [14]) | Plant response rating, Crabgrass, Large [8, 15]
10: Plant response rating, Bromegrass, Downy [3, 15]
100: Plant response rating, Foxtail, Giant [2, 16] | Plant response rating, Foxtail, Giant [2, 18] | Plant response rating, Foxtail, Giant [2, 19] | Plant response rating, Foxtail, Green [5, 16] | Plant response rating, Foxtail, Green [5, 17] | Plant response rating, Foxtail, Green [5, 18] | Plant response rating, Foxtail, Green [5, 19] | Plant response rating, Crabgrass, Large [8, 18] | Plant response rating, Crabgrass, Large [8, 19]
